Data taken from patent US10189785B2, “Heterocyclic compound” (TAKEDA PHARMACEUTICAL COMPANY LIMITED, priority 2015, dated 2019).

Key:
[1] = tested on: lung adenocarcinoma cell line HCC4006; assay: HCC4006 cell growth inhibition test (Test Example 2); format: cell-based; conditions: Homo sapiens, 120 h; 1 μM test compound; HCC4006 cells, culture for 5 days, CellTiter-Glo; read-out: Rate of inhibition (%) at 1 μM
Method in brief: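 HCC4006 cells in RPMI-1640 with 10% FBS were seeded at 250 cells/well and dosed with compound the next day. After 5 days, viability was read by CellTiter-Glo luminescence. Percent inhibition was calculated against no-compound control and cell-free blank.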

[2] = tested on: human leukemia cell line PL-21 cancer-bearing mice; assay: Antitumor test using PL-21 cell (Test Example 3); format: in vivo, mouse
Experimental: The compound of the present invention was evaluated for its antitumor effect on human leukemia cell line PL-21 cancer-bearing mice by the following method.
The human leukemia cell line PL-21 (JCRB) was transplanted to each 6-week-old Icr-scid female mouse (CLEA Japan Inc.) by the subcutaneous injection of 3.0×10^6 cells. The tumor size of successfully engrafted tumor was measured 13 days after the transplantation. The tumor volume was calculated according to the following expression: Tumor volume=Major axis×Minor axis×Minor axis×(½)
Individuals in which the volume of the engrafted tumor reached 100 to 150 mm^3 were selected and used in the experiment as groups each involving 5 or 6 individuals. A 0.5% methylcellulose suspension of each test compound was orally administered to each mouse using the dose (indicated by single dose), the number of doses and the dosing period shown in Table 5. The tumor sizes at the day before the start of the administration and one day after the completion of the administration were measured and the tumor volume was calculated.
The rate of tumor growth (T/C (%)) in the test compound administration group compared with a control administration group was calculated according to the following expression: T/C (%)=(Tumor volume after the completion of the administration of the test compound administration group−Tumor volume before the start of the administration of the test compound administration group)/(Tumor volume after the completion of the administration of the control administration group−Tumor volume before the start of the administration of the control administration group)×100

[3] = target: T1, SPT (SPT2-expressing membrane fraction: human SPT1, human SPT2 and human ssSPTa) (Homo sapiens, UniProt O15269+O15270); assay: SPT enzyme inhibition test (Test Example 1); format: biochemical; conditions: read-out: Rate of inhibition (%) at 1 μM
T1 construct: Full-length human SPT1, human SPT2 and human ssSPTa used; made in house; host or cells: FreeStyle 293 cells (pcDNA3.1 vectors, cotransfection); crude membrane fraction used
T1 sequence (O15269 1-473): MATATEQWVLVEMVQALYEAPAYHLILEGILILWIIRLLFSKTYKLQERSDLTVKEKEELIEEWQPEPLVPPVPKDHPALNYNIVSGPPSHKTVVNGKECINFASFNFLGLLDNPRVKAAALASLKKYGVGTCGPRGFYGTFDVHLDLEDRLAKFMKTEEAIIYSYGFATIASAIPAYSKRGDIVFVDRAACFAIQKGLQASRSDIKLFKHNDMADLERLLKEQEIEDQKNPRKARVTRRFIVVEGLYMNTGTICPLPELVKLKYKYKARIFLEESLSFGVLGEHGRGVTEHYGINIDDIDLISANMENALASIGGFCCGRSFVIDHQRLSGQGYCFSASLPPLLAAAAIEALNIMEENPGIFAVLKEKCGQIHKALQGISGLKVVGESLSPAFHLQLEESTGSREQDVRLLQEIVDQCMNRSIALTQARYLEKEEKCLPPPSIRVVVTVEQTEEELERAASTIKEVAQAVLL
T1 sequence (O15270 1-562): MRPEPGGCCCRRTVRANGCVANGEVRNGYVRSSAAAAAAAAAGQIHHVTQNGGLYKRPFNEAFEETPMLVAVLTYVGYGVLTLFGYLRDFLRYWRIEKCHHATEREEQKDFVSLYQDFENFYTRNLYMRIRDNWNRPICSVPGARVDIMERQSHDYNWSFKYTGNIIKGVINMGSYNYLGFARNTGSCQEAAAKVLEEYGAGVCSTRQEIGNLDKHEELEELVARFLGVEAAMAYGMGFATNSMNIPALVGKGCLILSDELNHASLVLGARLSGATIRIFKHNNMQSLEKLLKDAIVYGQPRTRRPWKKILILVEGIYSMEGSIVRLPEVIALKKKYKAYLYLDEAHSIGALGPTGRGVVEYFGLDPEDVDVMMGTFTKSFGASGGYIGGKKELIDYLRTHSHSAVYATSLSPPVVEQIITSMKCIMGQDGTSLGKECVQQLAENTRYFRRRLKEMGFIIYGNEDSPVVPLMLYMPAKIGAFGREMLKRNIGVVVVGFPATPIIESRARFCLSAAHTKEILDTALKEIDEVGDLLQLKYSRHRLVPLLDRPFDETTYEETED
T1 sequence (Q969W0 1-71 partner): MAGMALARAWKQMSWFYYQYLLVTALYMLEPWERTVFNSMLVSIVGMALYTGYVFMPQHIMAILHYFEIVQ
Method in brief: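 Membrane fraction (100 μg/mL stock) of cells expressing human SPT1, SPT2 and ssSPTa was preincubated 60 min at RT with compound in 100 mM Hepes pH 8.0 containing EDTA, DTT and 0.01% BSA. Reaction ran 15 min at RT with 2 mM L-serine and 20 μM palmitoyl CoA (solution concentrations), then formic acid quench. Product measured by RapidFire mass spectrometry against a C17-sphinganine internal standard, giving % inhibition.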

[4] = 10 mg/kg orally, administered once every two days, 14 days
[5] = 30 mg/kg orally, administered once every two days, 14 days

Row | inhibition at 1 µM [3] | Compound | inhibition at 1 µM [1] | T/C (%) ([2]; 10 mg/kg orally, administered every day for 3 days, 4-day drug holiday, 2 cycles) | T/C (%) [2, 4] | T/C (%) [2, 5]
1 |  | Cn1nc(C(F)(F)F)cc1C(=O)N[C@@H]1CCN(C(=O)c2cc(Cl)c3nccnc3c2)C[C@@H]1c1ccccc1 [Example 81B, N-((3S,4R)-1-((8-Chloroquinoxalin-6-yl)carbonyl)-3-phenylpiperidin-4-yl)-1-methyl-3-(trifluoromethyl)-1H-pyrazole-5-carboxamide] | 54% | 16% | 63% | 32%
2 |  | COc1cc(C(=O)N2CC[C@H](NC(=O)c3ccccc3OC(F)(F)F)c3c2cnn3C(C)C)cnc1OC [Example 162A, N-((7S)-4-((5,6-Dimethoxypyridin-3-yl)carbonyl)-1-isopropyl-4,5,6,7-tetrahydro-1H-pyrazolo[4,3-b]pyridin-7-yl)-2-(trifluoromethoxy)benzamide] | 56% |  | 52% | 38%
3 | 99% | COc1ncc(C(=O)N2CCC(NC(=O)c3ccccc3C(F)(F)F)c3c2cnn3C)cc1Cl (stereo not drawn) [Example 85A, N-(4-((5-chloro-6-methoxypyridin-3-yl)carbonyl)-1-methyl-4,5,6,7-tetrahydro-1H-pyrazolo[4,3-b]pyridin-7-yl)-2-(trifluoromethyl)benzamide] | 39% |  |  | 
4 | 99% | COc1ccc(C(=O)N2CC[C@H](NC(=O)c3ccccc3Cl)[C@H](c3ccc(F)cc3)C2)cc1OC (relative stereo) [Example 114B, 2-chloro-N-(cis-1-(3,4-dimethoxybenzoyl)-3-(4-fluorophenyl)piperidin-4-yl)benzamide] | 56% |  |  | 
5 | 96% | COc1cc(C(=O)N2CC[C@@H](NC(=O)c3cn(C)nc3C)[C@@H](c3ccccc3)C2)cnc1OC [Example 152B, N-((3S,4R)-1-((5,6-dimethoxypyridin-3-yl)carbonyl)-3-phenylpiperidin-4-yl)-1,3-dimethyl-1H-pyrazole-4-carboxamide] | 33% |  |  | 
6 | 99% | COc1ncc(C(=O)N2CC[C@H](NC(=O)c3ccc(Cl)cc3C(F)(F)F)c3c2cnn3CC(F)F)cc1Cl [Example 170A, 4-Chloro-N-((7S)-4-((5-chloro-6-methoxypyridin-3-yl)carbonyl)-1-(2,2-difluoroethyl)-4,5,6,7-tetrahydro-1H-pyrazolo[4,3-b]pyridin-7-yl)-2-(trifluoromethyl)benzamide] | 50% |  |  | 
